pEC50: −log10 of the molar value. In brackets after ≈: the same amount, converted by molar mass.
How the values were obtained:
[1] = target: T1, Follicle-stimulating hormone receptor (Homo sapiens) (UniProt P23945); experiment: Positive allosteric modulation of human FSH receptor expressed in CHO cells assessed as effect on FSH-induced cAMP accumulation at 12 uM after 1 hr by HTRF assay relative to FSH; type: functional, cell-based
T1 sequence (whole entry): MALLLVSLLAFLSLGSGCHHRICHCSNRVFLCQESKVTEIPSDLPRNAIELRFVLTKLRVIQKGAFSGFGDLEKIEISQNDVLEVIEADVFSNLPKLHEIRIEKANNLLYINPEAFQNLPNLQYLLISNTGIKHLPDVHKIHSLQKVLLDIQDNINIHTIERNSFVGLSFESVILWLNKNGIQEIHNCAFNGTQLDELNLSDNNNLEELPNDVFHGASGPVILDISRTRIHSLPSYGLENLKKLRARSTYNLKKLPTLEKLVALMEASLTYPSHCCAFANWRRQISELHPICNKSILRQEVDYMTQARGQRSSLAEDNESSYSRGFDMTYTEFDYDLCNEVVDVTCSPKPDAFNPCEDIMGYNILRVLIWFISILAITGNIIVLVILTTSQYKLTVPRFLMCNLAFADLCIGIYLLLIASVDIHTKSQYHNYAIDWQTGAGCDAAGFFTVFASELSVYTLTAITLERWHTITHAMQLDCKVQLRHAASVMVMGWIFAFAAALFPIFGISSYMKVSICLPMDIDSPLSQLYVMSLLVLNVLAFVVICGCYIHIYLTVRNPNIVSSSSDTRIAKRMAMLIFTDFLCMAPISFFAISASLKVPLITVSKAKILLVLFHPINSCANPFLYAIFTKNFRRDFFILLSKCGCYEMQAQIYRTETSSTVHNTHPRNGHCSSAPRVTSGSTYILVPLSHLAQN

[2] = target: T1, Follicle-stimulating hormone receptor (Homo sapiens); experiment: Positive allosteric modulation of human FSH receptor expressed in CHO cells assessed as effect on FSH-induced cAMP accumulation at 50 uM after 1 hr by HTRF assay relative to FSH; type: functional, cell-based
[3] = Oral bioavailability in immature Sprague-Dawley rat at 0.5 mg/kg; type: ADME, organism-based; settings: in vivo
[4] = target: T2, Follicle-stimulating hormone receptor (Homo sapiens, UniProt P23945); experiment: Positive allosteric modulation of human FSH receptor expressed in CHO cells assessed as effect on FSH-induced cAMP accumulation after 1 hr by HTRF assay; type: functional, cell-based
T2 sequence (P23945 whole entry): T1 sequence (whole entry)

[5] = Clearance in rat microsomes; type: ADME
[6] = Clearance in human microsomes; type: ADME
[7] = Induction of estradiol production in rat primary granulosa cells after 24 hrs by ELISA; type: functional
[8] = Induction of estradiol production in rat primary granulosa cells after 24 hrs by ELISA relative to FSH; type: functional
[9] = Clearance in immature Sprague-Dawley rat at 0.2 mg/kg, iv; type: ADME, organism-based; parameters: dose 0.2 mg/kg, route intravenous; settings: in vivo
[10] = Volume of distribution at steady state in immature Sprague-Dawley rat at 0.2 mg/kg, iv; type: ADME, organism-based; parameters: dose 0.2 mg/kg, route intravenous; settings: in vivo, read-out: Vdss
[11] = Aqueous solubility of the compound at pH 7.4; type: physicochemical

Row | Activity [2] | pEC50 [4] | microsomal CLint [5] | microsomal CLint [6] | SMILES | further results
1 | – | 7.55 | 25 µL/min/mg | 59 µL/min/mg | Cc1ccccc1N1CCN(c2ccc(C(=O)NCCCN3CCOC3=O)cc2NC(=O)c2ccco2)CC1 | –
2 | 20% | – | – | – | O=C(NCCCN1CCCC1=O)c1ccc(N2CCN(c3ccccn3)CC2)c(NC(=O)c2ccco2)c1 | –
3 | – | 6.74 | 38 µL/min/mg | 33 µL/min/mg | Cc1ccccc1N1CCN(c2ccc(C(=O)NCCCN3C(=O)CCC3=O)cc2NC(=O)c2ccco2)CC1 | –
4 | 20% | – | – | – | COc1ccccc1N1CCN(c2ccc(C(=O)NCCCN3CCCC3=O)cc2NC(=O)c2ccco2)CC1 | –
5 | – | – | 233 µL/min/mg | 312 µL/min/mg | Cc1ccccc1N1CCN(c2ccc(C(=O)NCCCN3CCCC3=O)cc2NC(=O)c2ccco2)CC1 | –

Further lines, the molecule ahead of its results:

Row | SMILES | Activity [2] | pEC50 [4] | microsomal CLint [5] | microsomal CLint [6] | further results
6 | Cc1ccccc1N1CCN(c2ccc(C(=O)NCCCN3CCCC3=O)cc2NC(=O)c2cccnc2)CC1 | – | – | – | – | Activity [1]: 37%
7 | O=C(NCCCN1CCCC1=O)c1ccc(N2CCNCC2)c(NC(=O)c2ccco2)c1 | 1% | – | – | – | –
8 | Cc1ccccc1N1CCN(c2ccc(C(=O)NCCCc3nn[nH]n3)cc2NC(=O)c2coc(C3CC3)n2)CC1 | – | 7.05 | 18 µL/min/mg | 20 µL/min/mg | bioavailability [3]: 21%; pEC50 [7]: 6.77; Efficacy [8]: 78%; clearance [9]: 13.2 mL/min/kg; Vd [10]: 5.46 L/kg; solubility [11]: 160 µM (≈ 88.9 µg/mL)
9 | Cc1ccc(N2CCN(c3ccc(C(=O)NCCCN4CCCC4=O)cc3NC(=O)c3coc(C4CC4)n3)CC2)cc1 | 13% | – | – | – | –
10 | Cc1ccccc1N1CCN(c2ccc(C(=O)NCCCN3CCCC3=O)cc2NC(=O)c2coc(C3CC3)n2)CC1 | – | 7.00 | 225 µL/min/mg | 260 µL/min/mg | –
11 | Cc1ccccc1N1CCN(c2ccc(C(=O)N3CCC(N4CCCC4=O)CC3)cc2NC(=O)c2ccco2)CC1 | – | – | – | – | Activity [1]: 40%
12 | Cc1ccccc1N1CCN(c2ccc(C(=O)NCCCN3CCCC3=O)cc2NC(=O)c2coc(C3CC3)n2)CC1C (configuration not stated) | 36% | – | – | – | –
13 | Cc1ccccc1C1CCN(c2ccc(C(=O)NCCCN3CCCC3=O)cc2NC(=O)c2ccco2)CC1 | 1% | – | – | – | –
14 | Cc1ccccc1N1CCN(c2ccc(C(=O)N[C@@H]3CCC[C@@H](O)[C@H]3O)cc2NC(=O)c2coc(C3CC3)n2)CC1 | – | 7.28 | 13 µL/min/mg | 72 µL/min/mg | bioavailability [3]: 23%; pEC50 [7]: 8.30; Efficacy [8]: 81%; clearance [9]: 3.41 mL/min/kg; Vd [10]: 1.65 L/kg
15 | Cc1ccccc1N1CCN(c2ccc(C(=O)NCCCN3CCCC3=O)cc2NC(=O)c2ccncc2)CC1 | – | – | – | – | Activity [1]: 34%
16 | Cc1ccccc1N1CCN(c2ccc(C(=O)NCc3cccc(C(N)=O)c3)cc2NC(=O)c2ccco2)CC1 | – | 7.34 | 31 µL/min/mg | 54 µL/min/mg | –
17 | Cc1ccccc1N1CCN(c2ccc(C(=O)NCCCN3CCCC3=O)cc2NS(=O)(=O)c2ccco2)CC1 | – | – | – | – | Activity [1]: 10%
18 | Cc1ccccc1N1CCN(c2ccc(CNCCCN3CCCC3=O)cc2NC(=O)c2coc(C3CC3)n2)CC1 | – | – | – | – | Activity [1]: 4.5%
